Experimental data published in patent publication US20250059187A1, “COVALENTLY BINDING INHIBITORS OF G12S, G12D AND/OR G12E MUTANTS OF K-RAS GTPASE” (The Regents of the University of California, priority 2021, published 2025).

Columns and labels:
[1] = test system: H358 cells (heterozygous KRAS p.G12C); test: Immunoblot in H358 cells; format: cell-based; settings: 10 μM, 2 h
Method: (§1) Cells were passed for at least two generations after cryorecovery before they were used for assays. All cell lines were tested mycoplasma negative using MycoAlert™ Mycoplasma Detection Kit (Lonza). When indicated, cells were treated with drugs at 40-60% confluency at a final DMSO concentration of 1%. At the end of treatment period, cells were placed on ice. Unless otherwise indicated, adherent cells were washed once with ice-cold PBS (1 mL), scraped with a spatula, and pelleted by centrifugation (500×g, 5 min). Suspension cells were pelleted by centrifugation (500×g, 5 min), washed with 1 mL ice-cold PBS, and pelleted again. Cells were lysed in RIPA buffer supplemented with protease and phosphatase inhibitors (cOmplete and phosSTOP, Roche) on ice for 10 min. For RBD pulldown experiments, cells were lysed in Co-IP Lysis Buffer in lieu of RIPA buffer. Lysates were clarified by high-speed centrifugation (19,000×g, 10 min). Concentrations of lysates were determined with protein BCA assay (Thermo Fisher) and adjusted to 2 mg/mL with additional RIPA buffer (or Co-IP Lysis Buffer). […]
(§2) Unless otherwise noted, SDS-PAGE was run with Novex 16% Bis-Tris gel (Invitrogen) in MES running buffer (Invitrogen) at 200 V for 60 min following the manufacturer's instructions. […] The membrane was washed three times with TBST (5 min each wash) and imaged on a Li-COR Odyssey fluorescence imager.

[2] = test system: A375 cells (wild-type KRAS); test: Immunoblot in A375 cells; format: cell-based; settings: 10 μM, 2 h
Method: as §1, §2

SMILES: O=C1O[C@H]2CN(c3nc(OCC45CCCN4CCC5)nc4c(F)c(-c5cccc6cccc(Cl)c56)ncc34)CC[C@@H]12 [5′]
- phospho-Erk in H358 cells [1]: weak inhibition of phospho-Erk
- signaling in A375 cells [2]: did not perturb the signaling
